Reference: patent US9169254B2, “Spiroimidazolone derivative” (Chugai Seiyaku Kabushiki Kaisha, priority 2009, dated 2015)

target: T1, human PTH1 receptor (Homo sapiens, UniProt Q03431); assay: In vitro cAMP signal activity in HKRK-B7 cells (LLC-PK1 cells overexpressing the human PTH1 receptor); format: cell-based; details: HKRK-B7 cells; compound at 1×10^−3 M; cAMP produced as percentage of that produced by hPTH(1-34) at 100 nM
T1 sequence (Q03431 27-593): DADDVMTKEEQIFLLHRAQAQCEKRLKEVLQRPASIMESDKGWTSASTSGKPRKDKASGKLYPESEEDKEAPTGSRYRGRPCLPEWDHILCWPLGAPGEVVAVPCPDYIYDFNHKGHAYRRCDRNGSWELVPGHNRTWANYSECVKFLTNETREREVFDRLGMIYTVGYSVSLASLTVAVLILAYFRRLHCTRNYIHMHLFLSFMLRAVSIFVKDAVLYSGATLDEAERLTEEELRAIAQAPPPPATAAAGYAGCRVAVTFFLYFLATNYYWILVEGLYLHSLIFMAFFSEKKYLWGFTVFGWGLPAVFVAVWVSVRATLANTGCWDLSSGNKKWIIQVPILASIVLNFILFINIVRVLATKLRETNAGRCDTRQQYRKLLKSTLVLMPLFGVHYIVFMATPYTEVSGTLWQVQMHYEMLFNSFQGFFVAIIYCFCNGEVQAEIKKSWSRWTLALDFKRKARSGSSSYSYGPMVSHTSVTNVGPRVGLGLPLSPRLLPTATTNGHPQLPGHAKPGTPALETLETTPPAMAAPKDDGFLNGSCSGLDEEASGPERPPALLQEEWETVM

Row | SMILES | cAMP production activity (%)
1 | Cc1cc(N2C(=O)CC[C@@H]2CO)ccc1/C=C/S(=O)(=O)N1CCC2(CC1)N=C(c1ccc(F)c(C(F)(F)F)c1)NC2=O [Compound 620, 2-(4-fluoro-3-trifluoromethyl-phenyl)-8-{(E)-2-[4-((R)-2-hydroxymethyl-5-oxo-pyrrolidin-1-yl)-2-methyl-phenyl]-ethenesulfonyl}-1,3,8-triaza-spiro[4.5]dec-1-en-4-one] | 112
2 | O=C1NC(CCCCCCCCC(F)(F)F)=NC12CCN(S(=O)(=O)/C=C/c1cccc3c1ccn3C[C@H](O)CO)CC2 [Compound 622, 8-{(E)-2-[1-((S)-2,3-Dihydroxy-propyl)-1H-indol-4-yl]-ethenesulfonyl}-2-(9,9,9-trifluoro-nonyl)-1,3,8-triaza-spiro[4.5]dec-1-en-4-one] | 134
3 | O=C1NC(CCCCCCCC(F)(F)C(F)(F)F)=NC12CCN(S(=O)(=O)/C=C/c1cccc3c1ccn3C[C@H](O)CO)CC2 [Compound 623, 8-{(E)-2-[1-((S)-2,3-Dihydroxy-propyl)-1H-indol-4-yl]-ethenesulfonyl}-2-(8,8,9,9,9-pentafluoro-nonyl)-1,3,8-triaza-spiro[4.5]dec-1-en-4-one] | 123
4 | CC[C@H]1CC[C@H](C2=NC3(CCN(S(=O)(=O)/C=C/c4ccc(N5CC(=O)NC5=O)cc4C)CC3)C(=O)N2)CC1 [Compound 624, 1-(4-{(E)-2-[2-(4-Ethyl-cyclohexyl)-4-oxo-1,3,8-triaza-spiro[4.5]dec-1-ene-8-sulfonyl]-vinyl}-3-methyl-phenyl)-imidazolidine-2,4-dione] | 36
5 | CC[C@H]1CC[C@H](C2=NC3(CCN(S(=O)(=O)/C=C/c4ccc(N5C(=O)NC(=O)C5C)cc4C)CC3)C(=O)N2)CC1 (stereo partly shown) [Compound 625, 1-(4-{(E)-2-[2-(4-ethyl-cyclohexyl)-4-oxo-1,3,8-triaza-spiro[4.5]dec-1-ene-8-sulfonyl]-vinyl}-3-methyl-phenyl)-5-methyl-imidazolidine-2,4-dione] | 47
6 | CC[C@H]1CC[C@H](C2=NC3(CCN(S(=O)(=O)/C=C/c4ccc(N5C(=O)NC(=O)C5(C)C)cc4C)CC3)C(=O)N2)CC1 [Compound 626, 1-(4-{(E)-2-[2-(4-ethyl-cyclohexyl)-4-oxo-1,3,8-triaza-spiro[4.5]dec-1-ene-8-sulfonyl]-vinyl}-3-methyl-phenyl)-5,5-dimethyl-imidazolidine-2,4-dione] | 53
7 | CCCCCCCCCC1=NC2(CCN(S(=O)(=O)/C=C/c3c(C)cc(OCCC(O)CO)cc3C)CC2)C(=O)N1 (stereo not shown) [Compound 627, 8-{(E)-2-[4-(3,4-Dihydroxy-butoxy)-2,6-dimethyl-phenyl]-ethenesulfonyl}-2-nonyl-1,3,8-triaza-spiro[4.5]dec-1-en-4-one] | 5.3
8 | CCCCCCCCCC1=NC2(CCN(S(=O)(=O)/C=C/c3c(C)cc(C(=O)O)cc3C)CC2)C(=O)N1 [Compound 628, 3,5-dimethyl-4-[(E)-2-(2-nonyl-4-oxo-1,3,8-triaza-spiro[4.5]dec-1-ene-8-sulfonyl)-vinyl]-benzoic acid] | 48
9 | Cc1cc(C(=O)N(C)N(C)C)cc(C)c1/C=C/S(=O)(=O)N1CCC2(CC1)N=C(C1CCC(CCC(F)(F)F)CC1)NC2=O (stereo not shown) [Compound 629, 3,5-Dimethyl-4-((E)-2-{4-oxo-2-[4-(3,3,3-trifluoro-propyl)-cyclohexyl]-1,3,8-triaza-spiro[4.5]dec-1-ene-8-sulfonyl}-vinyl)-benzoic acid trimethylhydrazide] | 87
10 | Cc1cc2c(ccn2C[C@@H](O)CO)c(C)c1/C=C/S(=O)(=O)N1CCC2(CC1)N=C(C1CCC(CCC(F)(F)F)CC1)NC2=O (stereo partly drawn) [Compound 630, 8-{(E)-2-[1-((R)-2,3-dihydroxy-propyl)-4,6-dimethyl-1H-indol-5-yl]-ethenesulfonyl}-2-[4-(3,3,3-trifluoro-propyl)-cyclohexyl]-1,3,8-triaza-spiro[4.5]dec-1-en-4-one] | 4.1

More lines, now with the values ahead:

Row | cAMP production activity (%) | SMILES
11 | 46 | Cc1cc(N(CCN(C)C)S(C)(=O)=O)cc(C)c1/C=C/S(=O)(=O)N1CCC2(CC1)N=C(c1cccc(OC(F)(F)F)c1)NC2=O [Compound 609, N-(2-dimethylamino-ethyl)-N-(3,5-dimethyl-4-{(E)-2-[4-oxo-2-(3-trifluoromethoxy-phenyl)-1,3,8-triaza-spiro[4.5]dec-1-ene-8-sulfonyl]-vinyl}-phenyl)-methane sulfonamide]
12 | 85 | CC(=O)NC[C@H]1CCC(=O)N1c1cc(C)c(/C=C/S(=O)(=O)N2CCC3(CC2)N=C(c2cccc(OC(F)(F)F)c2)NC3=O)c(C)c1 [Compound 610, N—[(R)-1-(3,5-dimethyl-4-{(E)-2-[4-oxo-2-(3-trifluoromethoxy-phenyl)-1,3,8-triaza-spiro[4.5]dec-1-ene-8-sulfonyl]-vinyl}-phenyl)-5-oxo-pyrrolidin-2-ylmethyl]-acetamide]
13 | 82 | Cc1cc(N2C(=O)CC[C@@H]2CN(C)C)cc(C)c1/C=C/S(=O)(=O)N1CCC2(CC1)N=C(c1cccc(OC(F)(F)F)c1)NC2=O [Compound 611, 8-{(E)-2-[4-((R)-2-dimethylaminomethyl-5-oxo-pyrrolidin-1-yl)-2,6-dimethyl-phenyl]-ethenesulfonyl}-2-(3-trifluoromethoxy-phenyl)-1,3,8-triaza-spiro[4.5]dec-1-en-4-one]
14 | 62 | CC(=O)N(CC#N)c1ccc(/C=C/S(=O)(=O)N2CCC3(CC2)N=C(c2cccc(OC(F)(F)F)c2)NC3=O)c(C)c1 [Compound 612, N-cyanomethyl-N-(3-methyl-4-{(E)-2-[4-oxo-2-(3-trifluoromethoxy-phenyl)-1,3,8-triaza-spiro[4.5]dec-1-ene-8-sulfonyl]-vinyl}-phenyl)-acetamide]
15 | 44 | CC(=O)N(CC(F)(F)F)c1ccc(/C=C/S(=O)(=O)N2CCC3(CC2)N=C(c2cccc(OC(F)(F)F)c2)NC3=O)c(C)c1 [Compound 613, N-(3-methyl-4-{(E)-2-[4-oxo-2-(3-trifluoromethoxy-phenyl)-1,3,8-triaza-spiro[4.5]dec-1-ene-8-sulfonyl]-vinyl}-phenyl)-N-(2,2,2-trifluoro-ethyl)-acetamide]
16 | 25 | Cc1cc(N2C(=O)N(C)C(C)(C)C2=O)cc(C)c1/C=C/S(=O)(=O)N1CCC2(CC1)N=C(c1cccc(OC(F)(F)F)c1)NC2=O [Compound 614, 3-(3,5-dimethyl-4-{(E)-2-[4-oxo-2-(3-trifluoromethoxy-phenyl)-1,3,8-triaza-spiro[4.5]dec-1-ene-8-sulfonyl]-vinyl}-phenyl)-1,5,5-trimethyl-imidazolidine-2,4-dione]
17 | 46 | Cc1cc(N2C(=O)NC(C)(C)C2=O)cc(C)c1/C=C/S(=O)(=O)N1CCC2(CC1)N=C(c1cccc(OC(F)(F)F)c1)NC2=O [Compound 615, 3-(3,5-dimethyl-4-{(E)-2-[4-oxo-2-(3-trifluoromethoxy-phenyl)-1,3,8-triaza-spiro[4.5]dec-1-ene-8-sulfonyl]-vinyl}-phenyl)-5,5-dimethyl-imidazolidine-2,4-dione]
18 | 94 | CC(=O)N(c1cc(C)c(/C=C/S(=O)(=O)N2CCC3(CC2)N=C(c2cccc(OC(F)(F)F)c2)NC3=O)c(C)c1)C1CCOCC1 [Compound 616, N-(3,5-dimethyl-4-{(E)-2-[4-oxo-2-(3-trifluoromethoxy-phenyl)-1,3,8-triaza-spiro[4.5]dec-1-ene-8-sulfonyl]-vinyl}-phenyl)-N-(tetrahydro-pyran-4-yl)-acetamide]
19 | 96 | Cc1cc(N2CCOCC2=O)ccc1/C=C/S(=O)(=O)N1CCC2(CC1)N=C(c1cccc(OC(F)(F)F)c1)NC2=O [Compound 617, 8-{(E)-2-[2-methyl-4-(3-oxo-morpholin-4-yl)-phenyl]-ethenesulfonyl}-2-(3-trifluoromethoxy-phenyl)-1,3,8-triaza-spiro[4.5]dec-1-en-4-one]
20 | 121 | Cc1cc(N2C(=O)CNC2=O)ccc1/C=C/S(=O)(=O)N1CCC2(CC1)N=C(c1cccc(OC(F)(F)F)c1)NC2=O [Compound 618, 3-(3-methyl-4-{(E)-2-[4-oxo-2-(3-trifluoromethoxy-phenyl)-1,3,8-triaza-spiro[4.5]dec-1-ene-8-sulfonyl]-vinyl}-phenyl)-imidazolidine-2,4-dione]
21 | 61 | Cc1cc(C(=O)N2CCCC2)ccc1/C=C/S(=O)(=O)N1CCC2(CC1)N=C(c1ccc(F)c(C(F)(F)F)c1)NC2=O [Compound 619, 2-(4-Fluoro-3-trifluoromethyl-phenyl)-8-{(E)-2-[2-methyl-4-(pyrrolidine-1-carbonyl)-phenyl]-ethenesulfonyl}-1,3,8-triaza-spiro[4.5]dec-1-en-4-one]
22 | 80 | Cc1cc(N2C(=O)CC[C@H]2CO)ccc1/C=C/S(=O)(=O)N1CCC2(CC1)N=C(c1ccc(F)c(C(F)(F)F)c1)NC2=O [Compound 621, 2-(4-fluoro-3-trifluoromethyl-phenyl)-8-{(E)-2-[4-((S)-2-hydroxymethyl-5-oxo-pyrrolidin-1-yl)-2-methyl-phenyl]-ethenesulfonyl}-1,3,8-triaza-spiro[4.5]dec-1-en-4-one]
